Test results: patent US4218562A, “Antibiotic derivatives of XK-62-2” (Abbott Laboratories, priority 1978, dated 1980)
In brackets after ≈: the same amount, converted by molar mass. Where two headings read alike, the source gives them in different places.

How the values were obtained:
[1] = system: Escherichia coli KY 8327; experiment: Agar dilution MIC, pH 8.0: Escherichia coli KY 8327; type: cell-based; conditions: for MIC: Escherichia coli, KY8327, agar-dilution method, pH 8.0, strain produces gentamicin adenyltransferase, read-out: Minimum Inhibitory Concentration; for anti-bacterial activity: comparison of MIC in Table 1, E. coli KY 8327
Description: (§1) The former bacterium inactivates kanamycins and gentamicins by adenylation, and the latter inactivates gentamicins by acetylation.

[2] = system: Escherichia coli KY 8348; experiment: Agar dilution MIC, pH 8.0: Escherichia coli KY 8348; type: cell-based; conditions: for MIC: Escherichia coli, KY8348, agar-dilution method, pH 8.0, strain produces gentamicin acetyltransferase Type I, read-out: Minimum Inhibitory Concentration; for anti-bacterial activity: comparison of MIC in Table 1, E. coli KY 8348
Description: as §1

[3] = system: Proteus vulgaris ATCC 6897; experiment: Agar dilution MIC, pH 8.0: Proteus vulgaris ATCC 6897; type: cell-based
[4] = system: Pseudomanas aeruginosa BMH 1; experiment: Agar dilution MIC, pH 8.0: Pseudomonas aeruginosa BMH 1; type: cell-based
[5] = system: Escherichia coli ATCC 26; experiment: Agar dilution MIC, pH 8.0: Escherichia coli ATCC 26; type: cell-based
[6] = system: strains of Escherichia coli having an R factor; experiment: Anti-bacterial activity against Escherichia coli having an R factor; type: cell-based; conditions: E. coli having an R factor which shows resistance to known aminoglycoside antibiotics
[7] = system: Salmanella typhosa ATCC 9992; experiment: microbe, parasite or virus in culture; type: cell-based
[8] = system: Shigella seanei ATCC 9250; experiment: microbe, parasite or virus in culture; type: cell-based
[9] = system: Staphylococcus aureus ATCC 6538P; experiment: Agar dilution MIC, pH 8.0: Staphylococcus aureus ATCC 6538P; type: cell-based; conditions: ATCC6538P
[10] = system: Bacillus subtilis No. 10707; experiment: Agar dilution MIC, pH 8.0: Bacillus subtilis No. 10707; type: cell-based
[11] = system: Krobsiella pneumoniae ATCC 10081; experiment: Agar dilution MIC, pH 8.0: Krobsiella pneumoniae ATCC 10081; type: cell-based
[12] = system: staphylococcus aureus 209P; experiment: Agar dilution MIC, pH 7.2: Staphylococcus aureus 209P; type: cell-based; conditions: pH 7.2, read-out: Minimum Inhibitory Concentration
[13] = system: Pseudomonas aeruginosa KY 8516; experiment: Agar dilution MIC, pH 7.2: Pseudomonas aeruginosa KY 8516; type: cell-based; conditions: KY8516, pH 7.2, read-out: Minimum Inhibitory Concentration
[14] = system: Bacillus subtillus ATCC 6688; experiment: Agar dilution MIC, pH 7.2: Bacillus subtillus ATCC 6688; type: cell-based
[15] = system: Pseudomonas aeruginosa KY 8512; experiment: Agar dilution MIC, pH 7.2: Pseudomonas aeruginosa KY 8512; type: cell-based; conditions: KY8512, pH 7.2, read-out: Minimum Inhibitory Concentration
Description: ^7 produces neamycinkanamycin phosphotransferase Type

[16] = system: Proteus marganii KY 4298; experiment: Agar dilution MIC, pH 7.2: Proteus marganii KY 4298; type: cell-based
[17] = system: Pseudomonas aeruginosa KY 8511; experiment: Agar dilution MIC, pH 7.2: Pseudomonas aeruginosa KY 8511; type: cell-based; conditions: KY8511, pH 7.2, read-out: Minimum Inhibitory Concentration
[18] = system: Klebsiella pneumoniae No. 8045; experiment: Agar dilution MIC, pH 7.2: Klebsiella pneumoniae No. 8045; type: cell-based; conditions: NO.8045, pH 7.2, read-out: Minimum Inhibitory Concentration
[19] = system: Proteus Mirabilis 1287; experiment: Agar dilution MIC, pH 7.2: Proteus Mirabilis 1287; type: cell-based; conditions: pH 7.2, read-out: Minimum Inhibitory Concentration
[20] = system: Sarcina lucca ATCC 9341; experiment: Agar dilution MIC, pH 7.2: Sarcina lucca ATCC 9341; type: cell-based; conditions: ATCC9341, pH 7.2, read-out: Minimum Inhibitory Concentration
[21] = system: Pseudomonas aeruginosa BMH No. 1; experiment: Agar dilution MIC, pH 7.2: Pseudomonas aeruginosa BMH No. 1; type: cell-based
[22] = system: Escherichia coli T-2; experiment: Agar dilution MIC, pH 7.2: Escherichia coli T-2; type: cell-based; conditions: T2, pH 7.2, read-out: Minimum Inhibitory Concentration
[23] = system: Pseudomonas aeruginosa KY 8510; experiment: Agar dilution MIC, pH 7.2: Pseudomonas aeruginosa KY 8510; type: cell-based; conditions: KY8510, pH 7.2, read-out: Minimum Inhibitory Concentration
[24] = system: staphylococcus aureus Smith; experiment: Agar dilution MIC, pH 7.2: Staphylococcus aureus Smith; type: cell-based; conditions: pH 7.2, read-out: Minimum Inhibitory Concentration
[25] = system: Escherichia coli T-5; experiment: Agar dilution MIC, pH 7.2: Escherichia coli T-5; type: cell-based; conditions: T5, pH 7.2, read-out: Minimum Inhibitory Concentration
[26] = system: Escherichia coli KY 8321; experiment: Agar dilution MIC, pH 7.2: Escherichia coli KY 8321; type: cell-based; conditions: KY8321, pH 7.2, read-out: Minimum Inhibitory Concentration
[27] = system: Proteus vulgaris 6897; experiment: Agar dilution MIC, pH 7.2: Proteus vulgaris 6897; type: cell-based; conditions: Proteus vulgaris, 6897, pH 7.2, read-out: Minimum Inhibitory Concentration
[28] = system: various bacteria having a resistance to at least one of gentamicin antibiotics and XK-62-2; experiment: Antibacterial activity against resistant bacteria (summary of Table 2); type: cell-based; conditions: bacteria producing gentamicin adenyltransferase and/or gentamicin acetyltransferase Type I and Type II; from Table 2
[29] = Solubility; type: physicochemical
[30] = ATCC6897, agar-dilution method, pH 8.0, read-out: Minimum Inhibitory Concentration
[31] = BMH1, agar-dilution method, pH 8.0, read-out: Minimum Inhibitory Concentration
[32] = ATCC26, agar-dilution method, pH 8.0, read-out: Minimum Inhibitory Concentration
[33] = agar-dilution method, pH 8.0, read-out: Minimum Inhibitory Concentration
[34] = ATCC9250, agar-dilution method, pH 8.0, read-out: Minimum Inhibitory Concentration
[35] = NO.10707, agar-dilution method, pH 8.0, read-out: Minimum Inhibitory Concentration
[36] = pH 8, read-out: Minimum Inhibitory Concentration
[37] = ATCC6688, agar dilution method, pH 7.2, read-out: Minimum Inhibitory Concentration
[38] = BMHNO.1, agar dilution method, pH 7.2, read-out: Minimum Inhibitory Concentration

CNC[C@@H]1CC[C@@H](NC(=O)[C@@H](O)CCN)[C@@H](O[C@H]2[C@H](O)[C@@H](O[C@H]3OC[C@](C)(O)[C@H](NC)[C@H]3O)[C@H](N)C[C@@H]2NC(=O)[C@@H](O)CCN)O1 [IV, 3-N-2'-N-bis[L-(-)-α-hydroxy-γ-aminobutyryl]XK-62-2]
MIC [1]: 0.26 µg/mL (≈ 0.391 µM)
anti-bacterial activity [1]: strong anti-bacterial activity
MIC [2]: 0.13 µg/mL (≈ 0.195 µM)
anti-bacterial activity [2]: strong anti-bacterial activity
MIC [3, 30]: 0.521 µg/mL (≈ 0.783 µM)
MIC [4, 31]: 8.34 µg/mL (≈ 12.5 µM)
MIC [5, 32]: 0.13 µg/mL (≈ 0.195 µM)
anti-bacterial activity [6]: strong anti-bacterial activity
MIC [7, 33]: 0.13 µg/mL (≈ 0.195 µM)
MIC [8, 34]: 0.26 µg/mL (≈ 0.391 µM)
MIC [9, 33]: 0.13 µg/mL (≈ 0.195 µM)
MIC [10, 35]: 0.016 µg/mL (≈ 0.024 µM)
MIC [11, 33]: 0.065 µg/mL (≈ 0.0976 µM)

CNC[C@@H]1CC[C@@H](NC(=O)[C@@H](O)CCN)[C@@H](O[C@H]2[C@H](O)[C@@H](O[C@H]3OC[C@](C)(O)[C@H](NC)[C@H]3O)[C@H](NC(=O)[C@@H](O)CCN)C[C@@H]2N)O1 [III, 1-N-2'-N-bis-[L-(-)-α-hydroxy-γ-aminobutyryl]XK -62-2]
MIC [1]: 0.065 µg/mL (≈ 0.0976 µM)
anti-bacterial activity [1]: strong anti-bacterial activity
MIC [2]: 0.065 µg/mL (≈ 0.0976 µM)
anti-bacterial activity [2]: strong anti-bacterial activity
MIC [3, 30]: 0.521 µg/mL (≈ 0.783 µM)
MIC [4, 31]: 8.34 µg/mL (≈ 12.5 µM)
MIC [5, 32]: 0.065 µg/mL (≈ 0.0976 µM)
anti-bacterial activity [6]: strong anti-bacterial activity
MIC [8, 34]: 0.26 µg/mL (≈ 0.391 µM)
MIC [9, 33]: 0.065 µg/mL (≈ 0.0976 µM)
MIC [10, 35]: 0.008 µg/mL (≈ 0.012 µM)
MIC [11, 33]: 0.065 µg/mL (≈ 0.0976 µM)

NC[C@H]1O[C@H](O[C@H]2[C@H](O)[C@@H](O[C@H]3O[C@H](CO)[C@@H](O)[C@H](N)[C@H]3O)[C@H](N)C[C@@H]2N)[C@H](O)[C@@H](O)[C@@H]1O [Kanamycin A, kanamycin A]
MIC [12]: 0.2 µg/mL (≈ 0.413 µM)
MIC ([3]; ATCC6897, pH 8, read-out: Minimum Inhibitory Concentration): 0.16 µg/mL (≈ 0.33 µM)
MIC [13]: > 100 µg/mL
MIC ([4]; BMH1, pH 8, read-out: Minimum Inhibitory Concentration): 5.2 µg/mL (≈ 10.7 µM)
MIC ([14]; ATCC6688, pH 7.2, read-out: Minimum Inhibitory Concentration): 0.2 µg/mL (≈ 0.413 µM)
MIC [15]: 12.5 µg/mL (≈ 25.8 µM)
MIC ([5]; ATCC26, pH 8, read-out: Minimum Inhibitory Concentration): 0.16 µg/mL (≈ 0.33 µM)
MIC [7, 36]: 0.088 µg/mL (≈ 0.182 µM)
MIC ([16]; pH 7.2, read-out: Minimum Inhibitory Concentration): 1.56 µg/mL (≈ 3.22 µM)
MIC [17]: 100 µg/mL (≈ 206 µM)
MIC ([8]; ATCC9250, pH 8, read-out: Minimum Inhibitory Concentration): 0.16 µg/mL (≈ 0.33 µM)
MIC [18]: 0.4 µg/mL (≈ 0.826 µM)
MIC [19]: 6.25 µg/mL (≈ 12.9 µM)
MIC [20]: 6.25 µg/mL (≈ 12.9 µM)
MIC [9, 36]: 0.021 µg/mL (≈ 0.0433 µM)
MIC ([21]; BMHNO.1, pH 7.2, read-out: Minimum Inhibitory Concentration): 12.5 µg/mL (≈ 25.8 µM)
MIC [22]: 1.56 µg/mL (≈ 3.22 µM)
MIC [23]: 100 µg/mL (≈ 206 µM)
MIC [24]: 0.2 µg/mL (≈ 0.413 µM)
MIC ([10]; NO.10707, pH 8, read-out: Minimum Inhibitory Concentration): 0.021 µg/mL (≈ 0.0433 µM)
MIC [11, 36]: 0.042 µg/mL (≈ 0.0867 µM)
MIC [25]: 1.56 µg/mL (≈ 3.22 µM)
MIC [26]: 100 µg/mL (≈ 206 µM)
MIC [27]: 3.12 µg/mL (≈ 6.44 µM)

CNC[C@@H]1CC[C@@H](NC(=O)[C@@H](O)CCN)[C@@H](O[C@H]2[C@H](O)[C@@H](O[C@H]3OC[C@](C)(O)[C@H](NC)[C@H]3O)[C@H](N)C[C@@H]2N)O1 [Compound I, 2'-N-[L-(-)-α-hydroxy-γ-aminobutyryl]XK-62-2]
MIC [1]: 3.1 µg/mL (≈ 5.49 µM)
anti-bacterial activity [1]: strong anti-bacterial activity
MIC [2]: 0.05 µg/mL (≈ 0.0885 µM)
anti-bacterial activity [2]: strong anti-bacterial activity
MIC [3, 30]: 0.39 µg/mL (≈ 0.691 µM)
MIC [4, 31]: 25 µg/mL (≈ 44.3 µM)
MIC [5, 32]: 0.39 µg/mL (≈ 0.691 µM)
anti-bacterial activity [6]: strong anti-bacterial activity
MIC [7, 33]: 0.2 µg/mL (≈ 0.354 µM)
MIC [8, 34]: 0.39 µg/mL (≈ 0.691 µM)
MIC [9, 33]: 0.05 µg/mL (≈ 0.0885 µM)
MIC [10, 35]: 0.05 µg/mL (≈ 0.0885 µM)
MIC [11, 33]: 0.1 µg/mL (≈ 0.177 µM)

CNC[C@@H]1CC[C@@H](N)[C@@H](O[C@H]2[C@H](O)[C@@H](O[C@H]3OC[C@](C)(O)[C@H](NC)[C@H]3O)[C@H](NC(=O)[C@@H](O)CCN)C[C@@H]2N)O1 [Compound II, 1-N-[L-(-)-α-hydroxy-γ-aminobutyryl]XK-62-2]
MIC [1]: 0.016 µg/mL (≈ 0.0283 µM)
anti-bacterial activity [1]: strong anti-bacterial activity
anti-bacterial activity [2]: strong anti-bacterial activity
MIC [3, 30]: 0.065 µg/mL (≈ 0.115 µM)
MIC [14, 37]: 0.1 µg/mL (≈ 0.177 µM)
anti-bacterial activity [6]: strong anti-bacterial activity
MIC [20]: 0.4 µg/mL (≈ 0.708 µM)
MIC [9, 33]: 0.016 µg/mL (≈ 0.0283 µM)
MIC [21, 38]: 1.56 µg/mL (≈ 2.76 µM)
antibacterial activity [28]: very strong antibacterial activity
MIC [11, 33]: 0.008 µg/mL (≈ 0.0142 µM)

CNC[C@@H]1CC[C@@H](N)[C@@H](O[C@H]2[C@H](O)[C@@H](O[C@H]3OC[C@](C)(O)[C@H](NC)[C@H]3O)[C@H](N)C[C@@H]2N)O1 [XK-62-2]
MIC [3, 30]: 0.033 µg/mL (≈ 0.0712 µM)
MIC [14, 37]: < 0.05 µg/mL
MIC [5, 32]: 0.016 µg/mL (≈ 0.0345 µM)
MIC [7, 33]: 0.008 µg/mL (≈ 0.0173 µM)
MIC ([16]; agar dilution method, pH 7.2, read-out: Minimum Inhibitory Concentration): 0.4 µg/mL (≈ 0.863 µM)
MIC [8, 34]: 0.033 µg/mL (≈ 0.0712 µM)
solubility ([29]; in chloroform, benzene, ethyl acetate and n-hexane): insoluble
solubility ([29]; in ethanol and acetone): slightly soluble
solubility ([29]; in water and methanol): well soluble
MIC [20]: 0.4 µg/mL (≈ 0.863 µM)
MIC [21, 38]: 0.78 µg/mL (≈ 1.68 µM)
MIC [11, 33]: 0.004 µg/mL (≈ 0.00863 µM)
